Measured values from the supplement of paper PMC8633005.

Columns and labels:
Assay in all cases: drug sensitivity score (DSS) (DSS (unitless, 0-50 scale)); higher = more sensitive (stronger viability inhibition); extreme values may be limits of the assay
Conditions in all cases: 72 h; culture: 2D
[1] = tested on: SK-MEL-28
Summary of the method: (§1)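 Patient-derived melanoma cultures and melanoma cell lines were grown in 2D in 384-well plates with a 527-compound oncology library at five concentrations spanning a 10,000-fold range, with 1000–1500 cells per well for the cultures. CellTiter-Glo luminescence gave viability after 72 h at 37 °C. The drug sensitivity score is a modified area-under-curve measure derived from dose-response curves fitted in the in-house Breeze software.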

[2] = tested on: FM-MEL-6
Summary of the method: as §1

[3] = tested on: Bowes
Summary of the method: as §1

[4] = tested on: FM-MEL-3
Summary of the method: as §1

[5] = tested on: WM165
Summary of the method: as §1

[6] = tested on: SK-MEL-2
Summary of the method: as §1

[7] = tested on: FM-MEL-2
Summary of the method: as §1

[8] = tested on: WM852
Summary of the method: as §1

SMILES | drug sensitivity score [1] | drug sensitivity score [2] | drug sensitivity score [3] | drug sensitivity score [4] | drug sensitivity score [5] | drug sensitivity score [6] | drug sensitivity score [7] | drug sensitivity score [8]
C[C@H]1C[C@@H]2[C@H]([C@@H](O)C[C@@]3(C)[C@H]2CC[C@]3(O)C(=O)CO)[C@@]2(C)C=CC(=O)C=C12 [Methylprednisolone] | 0.4 | 0 | 1 | 1.2 | 0 | 0 | 0 | 0
CO[C@@H]1[C@H](N(C)C(=O)c2ccccc2)C[C@H]2O[C@]1(C)n1c3ccccc3c3c4c(c5c6ccccc6n2c5c31)C(=O)NC4 [Midostaurin] | 4.3 | 2.3 | 5.1 | 5.4 | 14.6 | 2.9 | 3.5 | 8.1
CNC(=O)c1nn(C)c2c1C(C)(C)Cc1cnc(Nc3ccc(N4CCN(C)CC4)cc3)nc1-2 [Milciclib] | 8.7 | 9 | 11 | 7.5 | 12 | 7 | 6.5 | 5.1
CCCCCCCCCCCCCCCCOP(=O)([O-])OCC[N+](C)(C)C [Miltefosine] | 1.8 | 1.2 | 5.9 | 6 | 6.2 | 2.1 | 0.4 | 2
CO[C@@]12[C@H](COC(N)=O)C3=C(C(=O)C(C)=C(N)C3=O)N1C[C@@H]1N[C@@H]12 [Mitomycin C] | 1.9 | 0.8 | 3.1 | 3.5 | 6.2 | 2 | 0.2 | 0
Clc1ccc(C(c2ccccc2Cl)C(Cl)Cl)cc1 (stereo not drawn) [Mitotane] | 0 | 0 | 1 | 0 | 0 | 0 | 0 | 0
O=C1c2c(O)ccc(O)c2C(=O)c2c(NCCNCCO)ccc(NCCNCCO)c21 [Mitoxantrone] | 6.1 | 5.4 | 6.7 | 3.9 | 16.8 | 3.4 | 7.1 | 5.5
CCS(=O)(=O)Nc1ccc(Oc2ccc(F)cc2F)c(-c2cn(C)c(=O)c3[nH]ccc23)c1 [Mivebresib] | 12.2 | 15.8 | 17 | 16.2 | 24.2 | 9 | 16.3 | 0.4
Nc1ccccc1NC(=O)c1ccc(CNc2nccc(-c3cccnc3)n2)cc1 [Mocetinostat] | 9.9 | 11.4 | 6.4 | 8.4 | 11.9 | 9.4 | 6.7 | 1.7
CCNC(=O)C[C@@H]1N=C(c2ccc(Cl)cc2)c2cc(OC)ccc2-n2c(C)nnc21 [Molibresib] | 1.8 | 5 | 3.8 | 4.8 | 6.5 | 0.5 | 3.8 | 0
N#CCNC(=O)c1ccc(-c2ccnc(Nc3ccc(N4CCOCC4)cc3)n2)cc1 [Momelotinib] | 3.7 | 1.1 | 4.1 | 1.2 | 7.2 | 0.2 | 3.7 | 1.9
CC1(C)CNc2cc(NC(=O)c3cccnc3NCc3ccncc3)ccc21 [Motesanib] | 0 | 0 | 0 | 0 | 0 | 0 | 0 | 0
CCCN(CCC)C(=O)C1=Cc2ccc(-c3ccc(C(=O)N4CCCC4)cc3)cc2N=C(N)C1 [Motolimod] | 0 | 1.3 | 1.6 | 1.1 | 0 | 0 | 0.5 | 2.8
FC(F)(F)c1ccc(/C=C/c2nc(COc3ccc(CCCCn4ccnn4)cc3)co2)cc1 [Mubritinib] | 0 | 0 | 6.4 | 9.3 | 2.3 | 0 | 0 | 15.5
Cc1cc(OCc2nnc(SC3CCCC3)n2-c2cccnc2)ccc1-c1ccc(S(C)(=O)=O)cc1 [NMS-873] | 6.8 | 5 | 11.1 | 11.4 | 9.4 | 4.4 | 4.1 | 16.9
COc1ccc(-c2ccc3ncc4c(c3c2)n(-c2ccc(N3CCNCC3)c(C(F)(F)F)c2)c(=O)n4C)cn1 [NVP-BGT226] | 11.5 | 12 | 19 | 13.1 | 18.3 | 13.6 | 11.7 | 11.9
Cc1ccc(C(=O)Nc2cccc(C(F)(F)F)c2)cc1Nc1nc(-c2cccnc2)nc2c1cnn2C [NVP-BHG712] | 1.3 | 3.6 | 0 | 10.6 | 1.9 | 0 | 6.8 | 4.7
COc1cc2c(cc1OC(C)C)[C@H](c1ccc(Cl)cc1)N(c1ccc(N(C)C[C@H]3CC[C@H](N4CCN(C)C(=O)C4)CC3)cc1)C(=O)C2 [NVP-CGM097] | 6.2 | 5 | 5.1 | 13.1 | 18 | 3.7 | 7.6 | 6.8
CN[C@@H](C)C(=O)N[C@H](C(=O)N1CCC[C@H]1c1nc(C(=O)c2ccc(F)cc2)cs1)C1CCCCC1 [NVP-LCL161] | 0.9 | 3.9 | 3 | 4.5 | 0 | 0.2 | 14.9 | 2.4
Cn1c(Nc2ccc(C(F)(F)F)cc2)nc2cc(Oc3ccnc(-c4ncc(C(F)(F)F)[nH]4)c3)ccc21 [NVP-RAF265] | 2.7 | 2 | 0.1 | 9.2 | 8.2 | 2.6 | 5.5 | 0
CC(=O)c1cc2c(o1)C(=O)c1ccccc1C2=O [Napabucasin] | 16.8 | 22.1 | 20.5 | 19.6 | 27 | 15.7 | 4.2 | 19.1

SMILES | drug sensitivity score [1] | drug sensitivity score [2] | drug sensitivity score [3] | drug sensitivity score [4] | drug sensitivity score [5] | drug sensitivity score [6] | drug sensitivity score [7] | drug sensitivity score [8]
CC1(C)CCC(c2ccc(Cl)cc2)=C(CN2CCN(c3ccc(C(=O)NS(=O)(=O)c4ccc(N[C@H](CCN5CCOCC5)CSc5ccccc5)c(S(=O)(=O)C(F)(F)F)c4)cc3)CC2)C1 [Navitoclax] | 0 | 0 | 0 | 12 | 0 | 0 | 4 | 0
CN1C(=O)N[C@H](Cc2c[nH]c3c(Cl)cccc23)C1=O [Necrostatin 2] | 0 | 0 | 0 | 0 | 0 | 0 | 0 | 0
O=c1ncn2nc(Sc3ccc(F)cc3F)ccc2c1-c1c(Cl)cccc1Cl [Neflamapimod] | 0.1 | 0.2 | 1.6 | 0.8 | 0.1 | 0 | 0.1 | 0.1
COc1nc(N)nc2c1ncn2[C@@H]1O[C@H](CO)[C@@H](O)[C@@H]1O [Nelarabine] | 0.1 | 0.1 | 0 | 0 | 0 | 0 | 0 | 0.6
CCOc1cc2ncc(C#N)c(Nc3ccc(OCc4ccccn4)c(Cl)c3)c2cc1NC(=O)/C=C/CN(C)C [Neratinib] | 0 | 0.3 | 3.2 | 3.2 | 4.9 | 0.2 | 1 | 0.5
CC1(C)NC(=O)N(c2ccc([N+](=O)[O-])c(C(F)(F)F)c2)C1=O [Nilutamide] | 0 | 0 | 1.1 | 0.4 | 0 | 0 | 0 | 0
COC(=O)c1ccc2c(c1)NC(=O)/C2=C(\Nc1ccc(N(C)C(=O)CN2CCN(C)CC2)cc1)c1ccccc1 [Nintedanib] | 2.1 | 5.6 | 6.5 | 1.8 | 0 | 0 | 1.5 | 5.3
NC(=O)c1cccc2cn(-c3ccc([C@@H]4CCCNC4)cc3)nc12 [Niraparib] | 0 | 0 | 0 | 0 | 6.9 | 0 | 1.4 | 0
CC(O)c1cc(C(=O)N[C@@H](C)Cn2ccc(-c3ccc(C#N)c(Cl)c3)n2)n[nH]1 (stereo partly drawn) [ODM-201] | 0 | 1.1 | 1.3 | 2.8 | 0 | 0 | 0 | 0.2
CC(=O)c1cnc2ccc(-c3cc(Cl)c(O)c(Cl)c3)nc2c1N[C@H]1CC[C@H](CN(C)C)CC1 [OTS167] | 14.3 | 8 | 15.4 | 19 | 17.4 | 11.4 | 9.5 | 10.5
O=C(c1cc(Cc2n[nH]c(=O)c3ccccc23)ccc1F)N1CCN(C(=O)C2CC2)CC1 [Olaparib] | 1 | 0 | 0.4 | 0 | 7.5 | 0 | 0 | 3.9
C=CC(=O)Nc1cccc(Oc2nc(Nc3ccc(N4CCN(C)CC4)cc3)nc3ccsc23)c1 [Olmutinib] | 0 | 0 | 0.8 | 0 | 0 | 0 | 0 | 0
COC(=O)C[C@](O)(CCCC(C)(C)O)C(=O)O[C@@H]1C(OC)=C[C@]23CCCN2CCc2cc4c(cc2[C@H]13)OCO4 [Omacetaxine] | 22.4 | 28.5 | 29.1 | 25.9 | 27.2 | 18.2 | 20.4 | 26.1
CC1(C)CC[C@]2(NC(=O)C(C)(F)F)CC[C@]3(C)[C@H](C(=O)C=C4[C@@]5(C)C=C(C#N)C(=O)C(C)(C)[C@@H]5CC[C@]43C)[C@@H]2C1 [Omaveloxolone] | 15.5 | 13.9 | 18.2 | 17.4 | 20.3 | 15.7 | 11.2 | 11.3
CC(C)c1cc(C(=O)N2Cc3ccc(CN4CCN(C)CC4)cc3C2)c(O)cc1O [Onalespib] | 6.9 | 4.2 | 13.3 | 14.2 | 15 | 8 | 7.1 | 5.7
COC[C@H](NC(=O)c1cnc(C)s1)C(=O)N[C@@H](COC)C(=O)N[C@@H](Cc1ccccc1)C(=O)[C@@]1(C)CO1 [Oprozomib] | 17 | 19.4 | 20.3 | 20.3 | 20 | 15.2 | 9.3 | 16.9
CNC(=O)c1ccc2cc([C@@]3(O)CCn4cncc43)ccc2c1 [Orteronel] | 0 | 0 | 0 | 0 | 0 | 0 | 0 | 0
C=CC(=O)Nc1cc(Nc2nccc(-c3cn(C)c4ccccc34)n2)c(OC)cc1N(C)CCN(C)C [Osimertinib] | 4 | 4.6 | 2.7 | 2.7 | 4.3 | 3.4 | 3.2 | 3.5
O=C(O)C(=O)O.[NH-][C@@H]1CCCC[C@H]1[NH-].[Pt+2] [Oxaliplatin] | 7.3 | 11.7 | 5.8 | 3.2 | 14.5 | 4.3 | 4.7 | 3.5
C=CCc1cccc(/C=N/NC(=O)CN2CCN(Cc3ccccc3)CC2)c1O [PAC-1] | 1.5 | 0 | 1.6 | 0 | 3.4 | 0 | 0 | 2.8
